According to patent US8993616B2, “(aza)indole derivative and use thereof for medical purposes” (Kissei Pharmaceutical Co., Ltd., priority 2007, dated 2015):

Key:
[1] = tested on: BBMV from human kidney cortex (uric acid uptake); test: Inhibitory activity of uric acid transport with brush-border membrane vesicles (BBMV); type: biochemical; settings: 10 μM test compound; uptake of 14C-labeled uric acid into human kidney cortex BBMV, 20 seconds
Experimental: Inhibitory activity of uric acid transport of test compounds was performed on the basis of methods described in a reference (Am. J. Physiol. 266 (Renal Fluid Electrolyte Physiol. 35): F797-F805, 1994) with a partial modification.
(1) Preparation of BBMV from Human Kidney Cortex
BBMV from human kidney cortex were purchased from KAC. Renal cortex was dissected from human kidney and cut into small pieces. Then, the cortex was homogenized in 5 volumes of ice-cold isotonic buffer (300 mM mannitol, 5 mM ethylene glycol-bis-(β-aminoethylether)-N,N,N′,N′-tetraacetic acid (EGTA), 12 mM tris(hydroxymethyl)aminomethane (Tris).HCl, pH 7.4). After adding 1 M magnesium chloride to a final concentration of 12 mM, and then the suspension was mixed and allowed to stand on ice for 15 minutes. […] After centrifugation at 30,000×g for 30 minutes at 4° C., the pellet was resuspended in buffer 2, and then the protein concentration was determined. […]
BBMV were thawed on ice. […] The uptake of uric acid into BBMV was measured by the rapid-filtration technique. […] Furthermore, filters were washed twice with 3 mL of stop solution and dissolved in 10 mL of Filter-Count (PerkinElmer), and the radioactivity was counted in a liquid scintillation counter (PerkinElmer). The radioactivity associated with the filters in the absence of BBMV was used as corrections. […]

[2] = target: Xanthine oxidase (from bovine milk, Sigma) (Bos taurus (Bovine), UniProt P80457); test: Xanthine oxidase inhibitory activity; type: biochemical; settings: xanthine substrate, 10 minutes at room temperature, absorbance at 290 nm
Xanthine oxidase (from bovine milk, Sigma), sequence (P80457 whole entry): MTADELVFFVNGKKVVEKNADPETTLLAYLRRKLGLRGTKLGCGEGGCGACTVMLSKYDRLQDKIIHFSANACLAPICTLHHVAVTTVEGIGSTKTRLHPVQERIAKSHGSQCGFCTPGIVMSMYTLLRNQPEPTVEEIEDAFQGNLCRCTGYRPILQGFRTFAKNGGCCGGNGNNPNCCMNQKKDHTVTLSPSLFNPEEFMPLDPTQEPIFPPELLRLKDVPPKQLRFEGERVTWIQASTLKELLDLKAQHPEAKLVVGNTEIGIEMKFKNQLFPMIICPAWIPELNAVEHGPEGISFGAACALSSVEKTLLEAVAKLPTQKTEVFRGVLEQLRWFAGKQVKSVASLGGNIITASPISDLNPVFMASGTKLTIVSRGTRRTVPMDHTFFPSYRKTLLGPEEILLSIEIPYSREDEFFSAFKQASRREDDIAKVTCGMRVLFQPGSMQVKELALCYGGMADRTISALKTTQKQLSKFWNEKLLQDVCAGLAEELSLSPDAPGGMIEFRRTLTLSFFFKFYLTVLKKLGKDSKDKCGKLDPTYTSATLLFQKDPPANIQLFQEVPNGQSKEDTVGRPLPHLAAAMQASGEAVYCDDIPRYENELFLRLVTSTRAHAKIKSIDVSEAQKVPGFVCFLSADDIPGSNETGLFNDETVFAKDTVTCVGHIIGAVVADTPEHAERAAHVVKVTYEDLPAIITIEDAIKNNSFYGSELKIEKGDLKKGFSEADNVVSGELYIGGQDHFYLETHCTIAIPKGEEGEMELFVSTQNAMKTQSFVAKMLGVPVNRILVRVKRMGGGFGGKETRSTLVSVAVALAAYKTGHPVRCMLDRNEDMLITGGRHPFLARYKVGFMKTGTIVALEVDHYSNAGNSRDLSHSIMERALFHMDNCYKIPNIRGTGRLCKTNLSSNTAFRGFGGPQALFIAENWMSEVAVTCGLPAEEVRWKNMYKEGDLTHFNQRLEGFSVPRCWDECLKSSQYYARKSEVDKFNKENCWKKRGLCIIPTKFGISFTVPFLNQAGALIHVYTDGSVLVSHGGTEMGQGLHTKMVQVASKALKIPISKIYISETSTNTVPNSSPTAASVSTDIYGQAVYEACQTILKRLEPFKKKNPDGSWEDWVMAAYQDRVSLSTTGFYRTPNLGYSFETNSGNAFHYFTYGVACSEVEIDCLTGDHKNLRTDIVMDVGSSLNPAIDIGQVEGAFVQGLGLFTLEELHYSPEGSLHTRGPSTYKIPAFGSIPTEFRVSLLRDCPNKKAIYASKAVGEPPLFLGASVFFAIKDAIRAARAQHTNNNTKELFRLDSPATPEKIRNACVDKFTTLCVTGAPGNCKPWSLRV
Experimental: (1) Preparation of Test Compounds
Test compounds were dissolved in DMSO (Wako) at 40 mM concentration and then diluted to intended concentrations with phosphate-buffered saline (PBS).
(2) Method for Measurement
Xanthine oxidase (from bovine milk, Sigma) was prepared with phosphate-buffered saline (PBS) at 0.02 units/mL, and then the solution was added to 96 well plates at 50 μL/well. In addition, test compounds diluted with PBS were added at 50 μL/well. Xanthine (Wako) at 200 μM prepared with PBS was added at 100 μL/well, and the reaction was conducted for 10 minutes at room temperature. Absorbance at 290 nm was measured using a microplate reader SpectraMax Plus 384 (Molecular device). The absorbance under a condition without xanthine is 0%, and control without test compounds is 100%. Fifty % inhibitory concentration of a test compound (IC50) was calculated (Table 60). Ex. No in the table indicates Example number.

IC50 [2]: 12.6 nM
Structure (SMILES): CC(C)c1ccc2c(C#N)cn(-c3ccc(C(=O)O)c(O)c3)c2c1 [Example 237]
inhibition % [1]: 64%
